Publication PMC10056986 (Pharmaceuticals, 2023)
Where two headings read alike, the source gives them in different places.

Legend:
[1] = tested on: Influenza virus A/Hong Kong/8/68 (H3N2); test: microbe, parasite or virus in culture; type: cell-based; conditions: unidentified influenza virus, H3N2, MDCK, read-out: EC50 (mean ± SD)
5HT2A = 5HT2A (Homo sapiens, UniProt P28223); test: cell-based
HSV-1 GHSV-UL46 = test: microbe, parasite or virus in culture; type: cell-based, herpes simplex virus type 1; conditions: Human alphaherpesvirus 1, Vero C1008, read-out: EC50 for Virus
hERG potassium channel [2] = target: T1, hERG potassium channel (Homo sapiens, UniProt Q12809); test: in vitro
PDK1 = PDK1 (Homo sapiens, UniProt O15530); test: biochemical
H1 [3] = target: T2, H1 (Homo sapiens, UniProt P35367); test: cell-based
[4] = target: influenza virus polymerase (PB1, PB2, NP, PA from A/California/04/2009 (H1N1) pdm09) (Influenza A virus, UniProt C3W5R8+C3W5R9); type: cell-based
in vivo = conditions: both, beagle, dog
AD2 = type: cell-based, human
op-mu = op-mu (Homo sapiens, UniProt P35372); test: cell-based
op-kappa = op-kappa (Homo sapiens, UniProt P41145); test: cell-based
M2 = M2 (Homo sapiens, UniProt P08172); test: cell-based
Eta = Eta (Homo sapiens, UniProt P25101); test: cell-based
M1 = M1 (Homo sapiens, UniProt P11229); test: cell-based
Alpha2a = Alpha2a (Homo sapiens, UniProt P08913); test: cell-based
V1a = V1a (Homo sapiens, UniProt P37288); test: cell-based
H2 = H2 (Homo sapiens, UniProt P25021); test: cell-based
[5] = tested on: influenza A virus WSN/33 (H1N1); parameters: species or system BALB/c mice; conditions: mouse, in vivo
op-delta = op-delta (Homo sapiens, UniProt P41143); test: cell-based
hERG potassium channel [6] = target: T1, hERG potassium channel; test: cell-based
in vitro = conditions: human
Aurora A = Aurora A (Homo sapiens, UniProt O14965); test: biochemical
[7] = tested on: A/Qingyuan/GIRD01/2017 (H7N9); test: microbe, parasite or virus in culture; type: cell-based, avian influenza virus; conditions: Influenza A virus, H7N9, MDCK, read-out: IC50 (mean ± SD)
MST4 = MST4 (Homo sapiens, UniProt Q9P289); test: biochemical
[8] = tested on: H1N1 and H3N2 influenza A virus strains; test: microbe, parasite or virus in culture; conditions: MDCK
Beta1 = Beta1 (Homo sapiens, UniProt P08588); test: cell-based
DYRK3 = DYRK3 (Homo sapiens, UniProt O43781); test: biochemical
[9] = tested on: Influenza virus A/PR/8/34 (H1N1); test: microbe, parasite or virus in culture; type: cell-based; conditions: H1N1|PR/8, MDCK, read-out: EC50 (mean ± SD)
H1 [10] = target: T2, H1; test: cell-based; remark: listed apart in the source
D2 = D2 (Homo sapiens, UniProt P14416); test: cell-based
[11] = tested on: Influenza virus A/WS/33 (H1N1); test: microbe, parasite or virus in culture; type: cell-based; conditions: H1N1, MDCK, read-out: EC50 (mean ± SD)
M3 = M3 (Homo sapiens, UniProt P20309); test: cell-based
CB2 = CB2 (Homo sapiens, UniProt P34972); test: cell-based
[12] = 10,000 nM, read-out: Inhibition at Maximum Concentration (%)

T2 sequence (P35367 whole entry): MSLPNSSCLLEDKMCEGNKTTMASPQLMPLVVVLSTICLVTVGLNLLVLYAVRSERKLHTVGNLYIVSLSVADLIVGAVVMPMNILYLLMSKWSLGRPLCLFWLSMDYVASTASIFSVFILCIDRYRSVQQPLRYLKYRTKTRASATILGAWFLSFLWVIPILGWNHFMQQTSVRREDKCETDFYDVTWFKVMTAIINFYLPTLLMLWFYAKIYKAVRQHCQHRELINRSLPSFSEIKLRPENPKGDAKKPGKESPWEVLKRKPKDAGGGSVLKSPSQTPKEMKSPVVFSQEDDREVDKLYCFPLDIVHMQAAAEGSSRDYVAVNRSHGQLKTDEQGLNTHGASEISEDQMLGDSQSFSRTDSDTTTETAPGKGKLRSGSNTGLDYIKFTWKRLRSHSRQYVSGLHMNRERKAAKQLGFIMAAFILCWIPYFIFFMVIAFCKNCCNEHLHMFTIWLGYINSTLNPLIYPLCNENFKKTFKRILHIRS
Chain of 5HT2A (P28223 whole entry): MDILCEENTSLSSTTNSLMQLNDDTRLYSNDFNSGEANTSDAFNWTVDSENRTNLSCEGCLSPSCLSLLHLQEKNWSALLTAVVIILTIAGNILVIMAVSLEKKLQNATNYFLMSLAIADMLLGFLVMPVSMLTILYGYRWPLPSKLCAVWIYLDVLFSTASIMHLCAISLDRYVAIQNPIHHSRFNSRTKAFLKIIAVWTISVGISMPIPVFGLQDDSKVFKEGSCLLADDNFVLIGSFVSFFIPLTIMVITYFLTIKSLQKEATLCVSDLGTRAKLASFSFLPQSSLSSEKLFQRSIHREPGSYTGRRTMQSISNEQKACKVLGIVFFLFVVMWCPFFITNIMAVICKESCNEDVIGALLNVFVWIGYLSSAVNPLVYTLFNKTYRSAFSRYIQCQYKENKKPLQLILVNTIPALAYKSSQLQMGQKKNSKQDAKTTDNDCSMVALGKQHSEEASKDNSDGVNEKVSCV
Chain of M1 (P11229 whole entry): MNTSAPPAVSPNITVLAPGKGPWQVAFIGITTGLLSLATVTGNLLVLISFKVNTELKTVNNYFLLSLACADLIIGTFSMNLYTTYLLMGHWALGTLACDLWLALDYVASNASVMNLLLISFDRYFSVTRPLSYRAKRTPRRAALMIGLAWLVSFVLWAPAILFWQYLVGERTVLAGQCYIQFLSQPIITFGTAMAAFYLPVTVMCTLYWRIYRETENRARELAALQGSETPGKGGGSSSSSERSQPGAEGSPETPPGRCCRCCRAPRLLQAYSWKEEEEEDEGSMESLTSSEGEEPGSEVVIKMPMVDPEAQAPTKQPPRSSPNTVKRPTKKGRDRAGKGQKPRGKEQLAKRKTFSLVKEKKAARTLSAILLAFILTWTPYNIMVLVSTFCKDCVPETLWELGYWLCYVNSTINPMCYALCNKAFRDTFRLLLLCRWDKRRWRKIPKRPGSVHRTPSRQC
Chain of M3 (P20309 whole entry): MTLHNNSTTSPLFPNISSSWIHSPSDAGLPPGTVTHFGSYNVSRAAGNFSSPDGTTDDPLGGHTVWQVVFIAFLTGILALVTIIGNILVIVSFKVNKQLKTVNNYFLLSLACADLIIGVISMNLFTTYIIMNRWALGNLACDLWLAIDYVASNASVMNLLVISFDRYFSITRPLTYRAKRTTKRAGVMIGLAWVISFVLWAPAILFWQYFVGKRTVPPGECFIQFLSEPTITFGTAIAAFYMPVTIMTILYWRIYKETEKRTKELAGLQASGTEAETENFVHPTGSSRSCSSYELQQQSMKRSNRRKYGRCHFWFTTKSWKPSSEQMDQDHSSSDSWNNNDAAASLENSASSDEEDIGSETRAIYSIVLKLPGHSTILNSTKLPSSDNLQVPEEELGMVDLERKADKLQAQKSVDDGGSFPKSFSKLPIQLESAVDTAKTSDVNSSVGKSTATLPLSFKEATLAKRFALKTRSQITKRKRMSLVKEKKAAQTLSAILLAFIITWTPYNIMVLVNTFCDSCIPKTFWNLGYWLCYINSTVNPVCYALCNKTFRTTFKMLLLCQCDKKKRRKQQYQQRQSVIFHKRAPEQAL
Chain of Eta (P25101 21-427): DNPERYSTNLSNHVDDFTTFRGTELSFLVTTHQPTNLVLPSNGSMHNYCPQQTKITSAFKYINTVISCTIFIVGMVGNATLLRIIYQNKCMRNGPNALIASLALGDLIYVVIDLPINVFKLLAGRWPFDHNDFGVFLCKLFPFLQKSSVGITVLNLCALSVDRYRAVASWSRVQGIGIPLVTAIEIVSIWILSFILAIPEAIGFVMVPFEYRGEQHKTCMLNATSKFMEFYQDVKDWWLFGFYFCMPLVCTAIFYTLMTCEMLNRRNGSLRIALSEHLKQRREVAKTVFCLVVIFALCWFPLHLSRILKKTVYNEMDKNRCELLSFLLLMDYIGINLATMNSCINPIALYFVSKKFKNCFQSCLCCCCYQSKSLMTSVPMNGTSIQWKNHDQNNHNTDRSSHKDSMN
Chain of op-delta (P41143 whole entry): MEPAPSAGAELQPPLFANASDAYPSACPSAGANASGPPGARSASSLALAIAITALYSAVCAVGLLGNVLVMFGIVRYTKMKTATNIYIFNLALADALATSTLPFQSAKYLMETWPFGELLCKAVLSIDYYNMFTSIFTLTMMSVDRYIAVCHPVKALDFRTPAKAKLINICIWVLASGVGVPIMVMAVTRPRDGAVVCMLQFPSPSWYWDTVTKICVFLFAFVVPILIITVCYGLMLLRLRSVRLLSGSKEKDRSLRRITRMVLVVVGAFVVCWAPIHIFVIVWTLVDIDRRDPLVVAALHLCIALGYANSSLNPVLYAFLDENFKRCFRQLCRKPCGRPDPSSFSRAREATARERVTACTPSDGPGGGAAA
Chain of CB2 (P34972 whole entry): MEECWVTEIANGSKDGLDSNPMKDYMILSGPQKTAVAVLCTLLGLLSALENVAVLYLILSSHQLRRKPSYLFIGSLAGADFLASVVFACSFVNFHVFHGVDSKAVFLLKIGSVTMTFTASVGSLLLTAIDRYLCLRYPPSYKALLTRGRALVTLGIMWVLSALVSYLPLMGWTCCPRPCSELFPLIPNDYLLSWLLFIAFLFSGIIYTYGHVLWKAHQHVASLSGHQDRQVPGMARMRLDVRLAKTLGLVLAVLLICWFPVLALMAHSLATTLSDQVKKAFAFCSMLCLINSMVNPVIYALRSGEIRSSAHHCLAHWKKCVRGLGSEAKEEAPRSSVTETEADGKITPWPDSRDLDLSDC
Chain of M2 (P08172 whole entry): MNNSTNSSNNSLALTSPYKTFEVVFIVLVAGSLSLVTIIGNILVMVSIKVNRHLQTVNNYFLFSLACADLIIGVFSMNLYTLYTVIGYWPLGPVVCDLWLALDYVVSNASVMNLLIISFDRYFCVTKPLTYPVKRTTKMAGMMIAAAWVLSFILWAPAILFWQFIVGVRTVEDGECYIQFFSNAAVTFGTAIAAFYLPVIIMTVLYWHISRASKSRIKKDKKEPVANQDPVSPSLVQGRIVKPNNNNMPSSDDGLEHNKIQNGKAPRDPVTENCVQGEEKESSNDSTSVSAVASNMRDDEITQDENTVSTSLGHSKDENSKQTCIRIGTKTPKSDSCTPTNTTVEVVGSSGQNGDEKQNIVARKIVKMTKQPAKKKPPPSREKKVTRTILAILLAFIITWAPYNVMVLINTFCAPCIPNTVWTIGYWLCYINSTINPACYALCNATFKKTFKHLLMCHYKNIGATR
Chain of Beta1 (P08588 whole entry): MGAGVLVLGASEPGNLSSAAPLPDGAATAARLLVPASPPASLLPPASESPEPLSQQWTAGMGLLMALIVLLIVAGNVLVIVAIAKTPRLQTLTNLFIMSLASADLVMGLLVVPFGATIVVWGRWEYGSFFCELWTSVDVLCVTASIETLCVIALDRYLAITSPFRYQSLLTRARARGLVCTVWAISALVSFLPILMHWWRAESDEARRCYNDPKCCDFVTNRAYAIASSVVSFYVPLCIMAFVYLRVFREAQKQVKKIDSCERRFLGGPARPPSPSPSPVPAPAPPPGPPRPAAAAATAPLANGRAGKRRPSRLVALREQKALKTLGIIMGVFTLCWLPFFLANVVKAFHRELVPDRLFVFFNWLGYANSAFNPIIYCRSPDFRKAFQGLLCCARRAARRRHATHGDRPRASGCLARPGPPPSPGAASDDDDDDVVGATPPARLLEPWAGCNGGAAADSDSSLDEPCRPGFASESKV
Chain of D2 (P14416 whole entry): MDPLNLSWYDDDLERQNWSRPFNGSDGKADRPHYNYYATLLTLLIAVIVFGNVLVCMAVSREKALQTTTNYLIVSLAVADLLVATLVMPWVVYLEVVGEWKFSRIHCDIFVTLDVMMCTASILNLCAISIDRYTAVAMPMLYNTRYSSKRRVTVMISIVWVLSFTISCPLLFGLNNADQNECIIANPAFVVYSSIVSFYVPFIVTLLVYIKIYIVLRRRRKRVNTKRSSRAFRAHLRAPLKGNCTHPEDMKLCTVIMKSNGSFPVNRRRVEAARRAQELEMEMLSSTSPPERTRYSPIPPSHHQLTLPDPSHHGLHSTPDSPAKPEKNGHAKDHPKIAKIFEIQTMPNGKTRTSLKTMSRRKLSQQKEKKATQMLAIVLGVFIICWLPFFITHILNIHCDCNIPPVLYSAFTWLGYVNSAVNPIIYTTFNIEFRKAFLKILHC
Chain of op-mu (P35372 whole entry): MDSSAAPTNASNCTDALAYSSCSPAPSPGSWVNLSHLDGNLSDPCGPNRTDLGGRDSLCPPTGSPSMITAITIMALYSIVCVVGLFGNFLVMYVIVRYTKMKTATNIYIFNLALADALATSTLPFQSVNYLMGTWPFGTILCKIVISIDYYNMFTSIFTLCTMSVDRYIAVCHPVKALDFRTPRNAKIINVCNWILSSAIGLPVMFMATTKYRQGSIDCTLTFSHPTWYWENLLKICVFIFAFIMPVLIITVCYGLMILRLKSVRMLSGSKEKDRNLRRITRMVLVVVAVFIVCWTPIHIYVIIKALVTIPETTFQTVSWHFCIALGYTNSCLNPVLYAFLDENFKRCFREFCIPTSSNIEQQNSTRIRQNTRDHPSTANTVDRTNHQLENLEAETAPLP

For O=C(O)[C@H]1C2CCC(CC2)[C@@H]1Nc1nc(-c2n[nH]c3ncc(F)cc23)nc(C2CC2)c1F [ZSP1273], the EC50 [1] was 0.019 ± 0.01 nM, the IC50 (5HT2A) was > 10 µM and the inhibition at 10 µM (5HT2A; [12]) was 2.56%. The EC50 (HSV-1 GHSV-UL46) was > 10 µM, the inhibition at 40 µM (hERG potassium channel [2]) was < 50% and the IC50 (PDK1) was > 10 µM. The EC50 (H1 [3]) was > 12 µM, the “Activity at Maximum Concentration (%)” value (H1 [3]; 12,000 nM) was 0.73% and the IC50 ([4]; read-out: IC50, Mean ± SEM) was 0.000562 ± 0.000116 µM. For the same compound, the IC50 ([4]; read-out: IC50, experiment 1) was 0.000533 µM, the IC50 ([4]; read-out: IC50, experiment 2) was 0.000464 µM and the IC50 ([4]; read-out: IC50, experiment 3) was 0.00069 µM. The AUC(0-t) (in vivo; iv, 1 mg/kg) was 791 ± 329 ng·h/mL, the Vd (in vivo; iv, 1 mg/kg) was 0.47 ± 0.0848 L/kg and the clearance (in vivo; iv, 1 mg/kg) was 25.8 ± 7.6 mL/min/kg. It also gave a half-life (in vivo; iv, 1 mg/kg) of 27.4 ± 10.1 min, an AUC(0-t) (in vivo; po, 1 mg/kg) of 211 ± 62.4 ng·h/mL and a Cmax (in vivo; po, 1 mg/kg) of 292 ± 78.2 ng/mL. It also gave a Tmax (in vivo; po, 1 mg/kg) of 27.5 ± 6.12 min, a bioavailability (in vivo; po, 1 mg/kg) of 26.7% and an AUC(0-t) (in vivo; po, 5 mg/kg) of 1210 ± 641 ng·h/mL. The Cmax (in vivo; po, 5 mg/kg) was 1450 ± 800 ng/mL, the Tmax (in vivo; po, 5 mg/kg) was 32.5 ± 14.8 min and the AUC(0-t) (in vivo; po, 15 mg/kg) was 5030 ± 1960 ng·h/mL. The Cmax (in vivo; po, 15 mg/kg) was 5800 ± 2150 ng/mL, the Tmax (in vivo; po, 15 mg/kg) was 27.5 ± 17.5 min and the IC50 (AD2) was > 10 µM. The “Inhibition at Maximum Concentration (%)” value (AD2; 10,000 nM) was 43.84%, the EC50 (op-mu) was > 12 µM and the “Activity at Maximum Concentration (%)” value (op-mu; 12,000 nM) was −3.45%. For the same compound, the EC50 (op-kappa) was > 12 µM, the “Activity at Maximum Concentration (%)” value (op-kappa; 12,000 nM) was −18.96% and the EC50 (M2) was > 12 µM. The “Activity at Maximum Concentration (%)” value (M2; 12,000 nM) was −3%, the EC50 (Eta) was > 12 µM and the “Activity at Maximum Concentration (%)” value (Eta; 12,000 nM) was −1.16%. The IC50 (M1) was > 10 µM, the inhibition at 10 µM (M1; [12]) was -0.95% and the EC50 (Alpha2a) was > 12 µM. The “Activity at Maximum Concentration (%)” value (Alpha2a; 12,000 nM) was −2.1%, the IC50 (V1a) was > 10 µM and the inhibition at 10 µM (V1a; [12]) was 7.24%. For the same compound, the EC50 (H2) was > 12 µM, the “Activity at Maximum Concentration (%)” value (H2; 12,000 nM) was −3.46% and the “body weight of mice” value [5] was “did not significantly reduce the body weight”. The “survival rate vs vehicle” value [5] was “could improve the survival rate”, the “time of death relative to vehicle group” value [5] was “died later than those in the vehicle group” and the EC50 (op-delta) was > 12 µM. For the same compound, the “Activity at Maximum Concentration (%)” value (op-delta; 12,000 nM) was −10.64%, the IC50 (hERG potassium channel [6]) was > 40 µM and the CC50 (in vitro) was > 10 µM. The IC50 (Aurora A) was 0.527 µM, the IC50 [7] was 0.000777 ± 0.000427 µM and the IC50 (MST4) was > 10 µM. The EC50 ([8]; read-out: EC50 values range) was 0.01 to 0.063 nM, the EC50 ([8]; read-out: average EC50 value range) was 0.012 to 0.063 nM and the EC50 (Beta1) was > 12 µM. The “Activity at Maximum Concentration (%)” value (Beta1; 12,000 nM) was 0.54%, the IC50 (DYRK3) was > 10 µM and the EC50 [9] was 0.042 ± 0.01 nM. For the same compound, the IC50 (H1 [10]) was > 10 µM, the inhibition at 10 µM (H1 [10]; [12]) was 13.4% and the EC50 (D2) was > 12 µM. The “Activity at Maximum Concentration (%)” value (D2; 12,000 nM) was −0.06%, the EC50 [11] was 0.032 ± 0.01 nM and the EC50 (M3) was > 12 µM. For the same compound, the “Activity at Maximum Concentration (%)” value (M3; 12,000 nM) was −2.89%, the EC50 (CB2) was > 12 µM and the “Activity at Maximum Concentration (%)” value (CB2; 12,000 nM) was −17.1%.
